“Also recorded” adds a separate entry of the source.
Legend:
CFHNE monolayers = assay: Monolayer resistance / tight junction integrity in Ussing chambers (toxicity); type: cell-based, human
Description: 3. In addition, delayed toxic effects could result in long-term damage of the monolayers that would not become apparent for several hours. Therefore, it is of interest to note whether the resistance or conductance was affected during this period. A reduction in resistance in monolayers treated with compound could indicate weakened tight junctions.
[…] […] As a control, the effect of pretreatment with phosphate-propionoxymethyl ester (26.6 μM) was tested using the same protocol.

human CF nasal epithelia = assay: Blue Dextran volume transport assay (fluid absorption); type: cell-based
Text: In normal human airway epithelia, Na^+ and Cl^− currents (CFTR and Ca^2+-activated Cl^− currents) contribute to airway surface liquid (ASL) fluid volume regulation depending on signaling equilibria. In contrast, in human CF airway epithelia, Na^+ currents through ENaC dominate basal ASL volume regulation accompanied by a relatively minor contribution through Ca^2+-activated Cl^− currents. The combination of enhanced ENaC currents and transient Ca^2+-activated Cl^− currents in CF result in an inadequate hydration of the ASL and reduction of mucociliary clearance. Since INO-E2 reduces Na^+ transport through ENaC, we hypothesized that INO-E2 would have a functional effect, similar to amiloride, and inhibit fluid absorption. To test this hypothesis, we exposed well differentiated monolayer cultures of CF nasal epithelia to an apically applied buffer containing INO-E2 and a known concentration of the non-permeable molecule Blue Dextran (BD). The resulting reduction in the ability of these monolayers to concentrate BD was taken as a functional indicator of INO-E2's involvement in the inhibition of ENaC.
HEPES Modified Ringer's Buffer (HMRB) was used for these assays. HMRB was sterilized by positive pressure filtration through a 0.2 um syringe tip filter (Gelman acrodisc). The BD stock solution was aseptically prepared with sterile buffer (2 mg BD/ml buffer). Compounds to be tested were solubilized in sterile HMRB containing 1 μM BD (final concentration of vehicle is 0.1% (1:1, DMSO+DMSO containing 5% pluronic-F127). […] A standard concentration curve was obtained by determining the optical densities of a serial dilution of 10 μM Blue Dextran in HMRB placed in a Falcon 3027 96-well plate. The optical density of BD in the solution was obtained by analysis at 660 nm in a Packard Spectracount. Standards and samples were analyzed on the same plate. 50 μl volumes were used for all samples and standards. The [BD] of the samples was determined by extrapolation from the standard curve using the Packard I-Smart software. The increase in [BD] from the starting value of 1 μM was taken to be an indication of the magnitude of volume absorption occurring across the monolayer. The rate of absorption was calculated by dividing the change in volume by the duration of the experiment. This value was normalized to a surface area of 1 cm^2, to give μl·cm^2−1·hr^−1. To address evaporative loss, which would appear in the data as artificially high absorptive rates, dummy membranes were constructed by attaching a thin Sylgard sheet to snapwells/transwells with silicon sealant. These dummy membranes were used in parallel with the epithelial monolayers to assess evaporative loss for each experiment.

[1] = tested on: calcium-activated Cl- channel; assay: Perforated patch whole cell recording of Cl- current; type: cell-based, human
Description: In FIGS. 4A and 4B, the response to 10 μM INO-E2 is contrasted with the response to ATP.

With `CCCCCCCCOC1C(OC(=O)CCC)C(OP(=O)(OCOC(=O)CC)OCOC(=O)CC)C(OP(=O)(OCOC(=O)CC)OCOC(=O)CC)C(OP(=O)(OCOC(=O)CC)OCOC(=O)CC)C1OP(=O)(OCOC(=O)CC)OCOC(=O)CC` (stereo not shown) [INO-E2, 2-O-butyryl-1-O-octyl-myo-inositol 3,4,5,6-tetrakisphosphate octakis (propionoxymethyl) ester] the “toxicity on repeated exposure (deterioration of tight junctions)” value (CFHNE monolayers; 1-2.5 μM repeatedly over 96 hours) was “no indication of toxicity; also recorded: No evidence of toxicity”, the “toxic effects as evaluated by tight junction integrity” value (CFHNE monolayers; 2 hr exposure 24 hrs before, up to highest concentration 200 μM) was “no apparent toxic effects” and the “integrity of the monolayers at high concentration” value (CFHNE monolayers; concentrations in 100 fold excess of the acute EC50) was “no decrement in the integrity of the monolayers”. For the same compound, the monolayer resistance (CFHNE monolayers; measured shortly after mounting, highest concentration 200 μM) was “increased”, the “change of potency on fluid absorption with repeat administration” value (human CF nasal epithelia; 2 hours each day for 8 days at 0.1 μM or 1 μM, n=6) was “enhancement of compound potency” and the “potency compared with amiloride in fluid secretion assay” value (human CF nasal epithelia; comparison 100 μM amiloride) was “as potent as amiloride”. The “duration of effects compared with amiloride” value (human CF nasal epithelia; conditions that model therapeutic exposure times) was “longer-lasting”, the “duration of effect on fluid secretion following a brief (pulsed) exposure” value (human CF nasal epithelia; pulsed exposure, FIG. 17) was “prolonged effects” and the “time to appearance of Cl- currents after addition” value ([1]; 10 μM, CFHNE cell, perforated patch) was 5 to 15 min. The “increase in chloride current” value ([1]; 5 and 10 μM, other perforated patch recordings, data not shown) was “low to intermediate increase”.

Source: US20050020542A1, “Method of modulating sodium ion absorption in epithelial cells” (priority 2001, published 2005)
